The results in this text go back to publication PMC9851200, “Multiparameter phenotypic screening for endogenous TFEB and TFE3 translocation identifies novel chemical series modulating lysosome function” (Autophagy, 2022).

Type in all cases: binding
The target of test [1] is kinases (KINOMEscan panel) (Homo sapiens, UniProt P04049). Conditions: RAF1; NEW KINOMEscan.
Test [2] concerns the target kinases (KINOMEscan panel) (Homo sapiens, UniProt Q86UE8). Conditions: kinase TLK2; NEW KINOMEscan.
Test [3] concerns the target T1, kinases (KINOMEscan panel) (Homo sapiens, UniProt Q9UHD2).
T1 sequence (Q9UHD2 1-729): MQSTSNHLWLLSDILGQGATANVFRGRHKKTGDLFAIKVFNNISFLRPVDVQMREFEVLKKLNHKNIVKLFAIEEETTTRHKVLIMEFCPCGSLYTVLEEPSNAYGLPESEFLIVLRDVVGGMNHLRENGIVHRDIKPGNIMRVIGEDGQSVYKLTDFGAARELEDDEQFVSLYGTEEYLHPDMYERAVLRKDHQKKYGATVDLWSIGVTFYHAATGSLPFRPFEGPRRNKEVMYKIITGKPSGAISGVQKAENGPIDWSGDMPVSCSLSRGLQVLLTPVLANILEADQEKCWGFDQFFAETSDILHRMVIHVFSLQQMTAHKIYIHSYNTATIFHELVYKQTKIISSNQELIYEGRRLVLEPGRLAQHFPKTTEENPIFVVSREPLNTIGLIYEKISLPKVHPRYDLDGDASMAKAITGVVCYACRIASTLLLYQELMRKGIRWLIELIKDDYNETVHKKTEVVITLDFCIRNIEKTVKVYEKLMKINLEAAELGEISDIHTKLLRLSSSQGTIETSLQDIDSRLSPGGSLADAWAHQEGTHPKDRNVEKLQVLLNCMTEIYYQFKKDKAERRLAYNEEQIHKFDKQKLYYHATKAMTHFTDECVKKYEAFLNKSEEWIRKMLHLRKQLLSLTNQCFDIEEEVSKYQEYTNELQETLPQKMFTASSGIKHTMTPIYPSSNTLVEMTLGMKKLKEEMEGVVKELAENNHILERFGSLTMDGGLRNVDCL
Conditions: TBK1; NEW KINOMEscan.

In test [4] the target is T2, kinases (KINOMEscan panel) (Homo sapiens, UniProt O75747).
T2 sequence (O75747 1-1486): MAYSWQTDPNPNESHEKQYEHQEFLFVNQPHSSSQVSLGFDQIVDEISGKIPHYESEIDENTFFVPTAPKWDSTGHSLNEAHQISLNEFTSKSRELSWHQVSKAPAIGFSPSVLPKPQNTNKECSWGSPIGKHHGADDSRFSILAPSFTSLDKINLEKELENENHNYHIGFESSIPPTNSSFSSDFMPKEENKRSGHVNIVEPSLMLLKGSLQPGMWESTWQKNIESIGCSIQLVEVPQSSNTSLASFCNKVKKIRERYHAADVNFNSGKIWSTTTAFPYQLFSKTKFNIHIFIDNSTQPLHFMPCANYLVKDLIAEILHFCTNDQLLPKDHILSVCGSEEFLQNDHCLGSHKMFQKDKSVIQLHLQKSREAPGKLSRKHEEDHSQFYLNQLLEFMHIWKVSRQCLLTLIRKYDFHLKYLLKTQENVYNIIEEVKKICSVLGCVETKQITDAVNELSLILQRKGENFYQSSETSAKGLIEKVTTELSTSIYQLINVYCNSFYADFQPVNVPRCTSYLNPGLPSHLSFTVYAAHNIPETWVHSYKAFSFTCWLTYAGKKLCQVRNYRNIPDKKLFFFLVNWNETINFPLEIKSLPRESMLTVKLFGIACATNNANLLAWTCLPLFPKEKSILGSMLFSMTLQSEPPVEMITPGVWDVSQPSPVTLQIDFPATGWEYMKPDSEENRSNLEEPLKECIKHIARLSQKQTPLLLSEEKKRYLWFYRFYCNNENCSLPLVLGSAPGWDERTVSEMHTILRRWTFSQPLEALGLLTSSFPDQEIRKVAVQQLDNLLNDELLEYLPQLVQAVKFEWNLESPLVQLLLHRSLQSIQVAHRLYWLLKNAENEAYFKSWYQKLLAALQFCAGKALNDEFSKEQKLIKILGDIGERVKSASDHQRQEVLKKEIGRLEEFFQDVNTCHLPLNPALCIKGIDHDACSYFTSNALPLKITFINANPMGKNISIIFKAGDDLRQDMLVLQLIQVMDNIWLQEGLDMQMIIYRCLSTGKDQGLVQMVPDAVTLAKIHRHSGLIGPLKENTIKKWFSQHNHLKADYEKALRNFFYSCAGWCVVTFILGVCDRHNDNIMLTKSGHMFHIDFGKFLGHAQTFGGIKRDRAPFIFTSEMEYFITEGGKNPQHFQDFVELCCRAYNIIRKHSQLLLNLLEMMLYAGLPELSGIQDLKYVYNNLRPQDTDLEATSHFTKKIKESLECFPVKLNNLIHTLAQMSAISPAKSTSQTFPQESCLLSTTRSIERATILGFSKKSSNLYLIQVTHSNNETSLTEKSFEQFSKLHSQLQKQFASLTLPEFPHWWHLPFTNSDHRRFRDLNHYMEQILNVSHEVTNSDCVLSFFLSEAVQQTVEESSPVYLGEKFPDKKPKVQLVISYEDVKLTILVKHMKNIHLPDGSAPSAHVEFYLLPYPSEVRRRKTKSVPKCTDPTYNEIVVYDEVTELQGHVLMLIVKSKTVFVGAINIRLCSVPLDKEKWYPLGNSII
Conditions: NEW KINOMEscan.

Test [5] has as its target kinases (KINOMEscan panel) (Homo sapiens, UniProt Q8NEV4). Conditions: kinase MYO3A; NEW KINOMEscan.

kinases (KINOMEscan panel) (Homo sapiens, UniProt P04049), sequence (P04049 whole entry): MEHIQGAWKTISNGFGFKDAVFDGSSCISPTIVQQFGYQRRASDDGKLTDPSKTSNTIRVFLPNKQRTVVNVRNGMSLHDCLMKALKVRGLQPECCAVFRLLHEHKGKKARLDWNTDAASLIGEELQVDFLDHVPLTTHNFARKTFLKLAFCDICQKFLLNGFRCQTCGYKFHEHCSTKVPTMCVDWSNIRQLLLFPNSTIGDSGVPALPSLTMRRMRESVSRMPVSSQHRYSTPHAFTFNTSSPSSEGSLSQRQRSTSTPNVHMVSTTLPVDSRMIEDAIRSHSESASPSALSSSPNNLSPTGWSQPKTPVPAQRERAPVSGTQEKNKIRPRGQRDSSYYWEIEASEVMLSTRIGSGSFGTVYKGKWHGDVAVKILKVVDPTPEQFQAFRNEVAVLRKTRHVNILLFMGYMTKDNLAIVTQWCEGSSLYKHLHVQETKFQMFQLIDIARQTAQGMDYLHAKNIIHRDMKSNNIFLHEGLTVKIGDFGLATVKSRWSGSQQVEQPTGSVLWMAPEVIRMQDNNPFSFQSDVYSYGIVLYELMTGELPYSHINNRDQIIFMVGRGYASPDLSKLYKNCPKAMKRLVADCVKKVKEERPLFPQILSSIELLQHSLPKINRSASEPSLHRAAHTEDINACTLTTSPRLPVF
kinases (KINOMEscan panel) (Homo sapiens, UniProt Q8NEV4), sequence (Q8NEV4 whole entry): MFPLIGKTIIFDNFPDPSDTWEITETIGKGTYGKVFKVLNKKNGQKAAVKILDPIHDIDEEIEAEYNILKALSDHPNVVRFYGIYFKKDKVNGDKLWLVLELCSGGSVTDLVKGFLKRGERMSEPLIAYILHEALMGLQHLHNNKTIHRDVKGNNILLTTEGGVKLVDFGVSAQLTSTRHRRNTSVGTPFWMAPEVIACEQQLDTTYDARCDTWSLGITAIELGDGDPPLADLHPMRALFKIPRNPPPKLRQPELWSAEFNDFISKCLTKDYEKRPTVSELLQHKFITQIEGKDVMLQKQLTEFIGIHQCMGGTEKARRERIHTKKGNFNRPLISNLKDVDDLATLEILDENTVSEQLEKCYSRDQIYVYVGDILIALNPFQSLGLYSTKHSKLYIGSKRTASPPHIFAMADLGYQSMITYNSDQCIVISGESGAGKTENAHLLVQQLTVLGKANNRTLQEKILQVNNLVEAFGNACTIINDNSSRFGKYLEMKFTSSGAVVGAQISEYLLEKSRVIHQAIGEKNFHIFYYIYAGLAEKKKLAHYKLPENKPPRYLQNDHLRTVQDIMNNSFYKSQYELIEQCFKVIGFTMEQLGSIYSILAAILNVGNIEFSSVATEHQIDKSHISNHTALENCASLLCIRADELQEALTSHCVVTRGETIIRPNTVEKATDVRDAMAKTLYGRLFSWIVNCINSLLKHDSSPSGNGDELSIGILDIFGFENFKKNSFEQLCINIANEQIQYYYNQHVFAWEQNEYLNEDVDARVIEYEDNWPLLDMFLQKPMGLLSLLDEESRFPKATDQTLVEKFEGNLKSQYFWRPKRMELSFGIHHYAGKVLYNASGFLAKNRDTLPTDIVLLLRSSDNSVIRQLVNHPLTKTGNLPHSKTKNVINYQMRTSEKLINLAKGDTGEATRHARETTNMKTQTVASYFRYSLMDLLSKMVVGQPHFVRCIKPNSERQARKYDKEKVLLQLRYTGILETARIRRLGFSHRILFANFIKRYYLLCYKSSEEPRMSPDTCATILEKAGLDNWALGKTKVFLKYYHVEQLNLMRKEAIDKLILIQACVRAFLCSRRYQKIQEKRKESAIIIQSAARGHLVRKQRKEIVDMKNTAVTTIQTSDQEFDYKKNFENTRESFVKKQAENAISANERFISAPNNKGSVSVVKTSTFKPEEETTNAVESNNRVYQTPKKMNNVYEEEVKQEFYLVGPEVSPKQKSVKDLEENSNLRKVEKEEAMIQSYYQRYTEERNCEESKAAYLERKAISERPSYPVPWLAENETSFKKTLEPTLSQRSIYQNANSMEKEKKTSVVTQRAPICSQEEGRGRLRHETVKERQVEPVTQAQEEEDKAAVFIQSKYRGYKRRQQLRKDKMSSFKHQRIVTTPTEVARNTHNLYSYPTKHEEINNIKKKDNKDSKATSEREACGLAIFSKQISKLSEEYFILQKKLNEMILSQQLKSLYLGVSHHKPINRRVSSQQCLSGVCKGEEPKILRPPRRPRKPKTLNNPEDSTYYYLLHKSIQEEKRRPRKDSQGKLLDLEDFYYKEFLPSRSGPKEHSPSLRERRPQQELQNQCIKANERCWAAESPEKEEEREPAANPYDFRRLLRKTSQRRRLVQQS
kinases (KINOMEscan panel) (Homo sapiens, UniProt Q86UE8), sequence (Q86UE8 whole entry): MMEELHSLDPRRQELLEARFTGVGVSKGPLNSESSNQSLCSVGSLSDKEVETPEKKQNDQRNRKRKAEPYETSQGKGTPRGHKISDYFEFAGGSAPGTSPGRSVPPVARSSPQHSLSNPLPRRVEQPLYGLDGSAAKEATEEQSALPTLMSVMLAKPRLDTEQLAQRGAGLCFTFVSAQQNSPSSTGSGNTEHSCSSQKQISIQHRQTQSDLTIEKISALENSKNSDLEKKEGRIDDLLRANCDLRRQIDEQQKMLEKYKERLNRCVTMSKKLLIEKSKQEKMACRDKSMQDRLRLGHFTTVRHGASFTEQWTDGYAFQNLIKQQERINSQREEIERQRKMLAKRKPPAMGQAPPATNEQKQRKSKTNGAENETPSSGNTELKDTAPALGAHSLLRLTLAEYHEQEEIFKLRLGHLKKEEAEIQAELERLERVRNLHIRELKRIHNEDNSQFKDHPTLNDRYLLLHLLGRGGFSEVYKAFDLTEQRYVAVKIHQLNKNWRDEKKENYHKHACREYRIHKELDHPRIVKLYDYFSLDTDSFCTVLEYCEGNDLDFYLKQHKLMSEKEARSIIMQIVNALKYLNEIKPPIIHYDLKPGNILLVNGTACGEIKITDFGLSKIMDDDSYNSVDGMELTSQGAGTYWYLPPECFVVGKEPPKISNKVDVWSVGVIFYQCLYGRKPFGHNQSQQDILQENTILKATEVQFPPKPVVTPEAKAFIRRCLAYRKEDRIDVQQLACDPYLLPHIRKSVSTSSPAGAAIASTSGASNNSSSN

As to `Cc1cccc(-c2nc(N(C)c3ccc4ncsc4c3)c3ccccc3n2)n1` [NK-161], the “KINOMEscan RAF1” value in test [1] is 0. Besides, the “KINOMEscan TLK2” value in test [2] was found to be 0. The “KINOMEscan TBK1” value in test [3] is 25. Also, the “KINOMEscan PIK3C2G” value in test [4] is given as 0. The “KINOMEscan MYO3A” value in test [5] came out at 0.
`Cc1cccc(-c2nc(Nc3ccc4nn(C)cc4c3)c3ccccc3n2)n1` [NK167]: the “KINOMEscan RAF1” value in test [1] came out at 4. Further, the “KINOMEscan TLK2” value in test [2] was determined as 0. The “KINOMEscan TBK1” value in test [3] is recorded as 44. Also, the “KINOMEscan PIK3C2G” value in test [4] stood at 0. In addition, the “KINOMEscan MYO3A” value in test [5] amounted to 0.
